Article PMC10726920 (Cancer Medicine, 2023)
Entries after “also recorded” stand apart in the source; their conditions may differ.

Legend:
[1] = system: mTOR pathway substrates 4EBP1, S6, AKT; experiment: Immunoblotting of paired bone marrow samples (pretreatment vs Day 8) from trial patients; format: in vivo, human
Text: Bone marrow aspirates harvested prior to treatment and again prior to drug administration on Day 8 ± 2 of treatment from the same patients were shipped overnight to a central laboratory, where marrow mononuclear cells isolated on Ficoll–Hypaque gradients were lysed under denaturing conditions that preserve protein phosphorylations. Paired whole cell lysates were subjected to SDS‐polyacrylamide gel electrophoresis and immunoblotting as described in the Supplementary Method: Data S1.
Cells were isolated from bone marrow or blood samples using Histopaque-1077 (Millipore-Sigma, St. Louis, MO) step gradients. […] Cells for ex vivo drug exposure were resuspended at a concentration of 1 x 10^6 cells/ml in RPMI 1640 medium containing 10% (v/v) heat-inactivated fetal bovine serum, 50 U/ml penicillin G, 50 µg/ml streptomycin, and 1 mM glutamine.
After samples were dialyzed sequentially into 4 M urea and 0.1% (w/v) SDS, lyophilized and reconstituted in SDS-sample buffer consisting of 4 M urea, 2% (w/v) SDS, […] (pH 6.8 at 4 °C), 10 mM EDTA, and 1% (w/v/) 2-mercaptoethanol, aliquots containing […] of total cellular protein were subjected to SDS-PAGE on gels containing 5-20% polyacrylamide gradients, transferred to nitrocellulose, and probed with antibodies as previously described ^34, 35. […]

[2] = system: human ALL cell line xenografts; parameters: method as in PMID 26917778; conditions: cited from earlier work

In the case of `CC(C)n1nc(-c2ccc3oc(N)nc3c2)c2c(N)ncnc21` [sapanisertib], the “induction of BIMEL and PUMA in trial samples” value ([1]; five pairs of samples) is given as “minimal in one pair of samples (Patient 2) and absent from the other four pairs”, the “impact on mTOR‐mediated phosphorylation (4EBP1, S6, AKT) in trial samples” value ([1]; pretreatment vs Day 8 trough, five patients) is given as “limited impact; also recorded: little evidence that mTOR‐mediated phosphorylation has been disrupted; also recorded: failed to convincingly demonstrate inhibition” and the “growth of human ALL cell line xenografts” value [2] is given as “inhibited growth”.
